Test results reported in article PMC4775916 (Antimicrobial Agents and Chemotherapy, 2016).
“And” between values parts separate entries of the source, which are not always exact repeats. Equal entries are not always repeated. Where two headings read alike, the source gives them in different places.

Tests used:
[1] = molecular target: T1, VIM-1 (Pseudomonas aeruginosa, UniProt A0A0F7KYQ8); experiment: Steady-state kinetics of β-lactam substrate hydrolysis; type: biochemical; settings: C-terminally His6-tagged VIM-1; 50 mM HEPES pH 7.2; apparent for ampicillin and ceftazidime
T1 construct: The N- and C- terminal residues of the mature enzymes are labelled 26; made in house
Experimental: (§1) The hydrolysis of a representative panel of β-lactam substrates was monitored at their respective absorbance wavelengths. The wavelengths and extinction coefficients used were previously described ([34]). The assays were carried out using 50 mM HEPES buffer (pH 7.2) supplemented with 1 μg/ml bovine serum albumin (BSA), 1 μM ZnSO4, and 0.01% Triton X-100. In the case of VIM-1, C-terminally His6-tagged VIM-1 was used for kinetic analyses. Note that no differences were observed between the activities of untagged VIM-1 and C-terminally His6-tagged VIM-1 for the selected antibiotics (data not shown). The initial rates were obtained from the changes in absorbance at various substrate concentrations. Steady-state kinetic parameters (Km and kcat) were determined by fitting the initial velocity data to the Michaelis-Menten equation using GraphPad Prism 5.01 software (see Table S4 in the supplemental material).

[2] = molecular target: T2, VIM-38 (Pseudomonas aeruginosa, UniProt A0A0F7KYQ8, A128K/A265V/E202A/H201L/K257T/S205R); experiment: as above; type: biochemical; settings: 50 mM HEPES pH 7.2, apparent for ampicillin and ceftazidime; for Km: read-out: Mean Km ± SD VIM-38
T2 construct: The N- and C- terminal residues of the mature enzymes are labelled 26; His6 with HRV3C cleavage site (pET-28a) (N, cleaved yes); made in house; host or cells: E. coli BL21(DE3)
Experimental: as §1

[3] = molecular target: T3, VIM-5 (Pseudomonas aeruginosa, UniProt A0A0F7KYQ8, A128K/E202A/H201L/K257T/S205R); experiment: as above; type: biochemical; settings: 50 mM HEPES pH 7.2, apparent for ampicillin and ceftazidime; for Km: read-out: Mean Km ± SD VIM-5
T3 construct: His6 with HRV3C cleavage site (pET-28a) (N, cleaved yes); made in house; host or cells: E. coli BL21(DE3)
Experimental: as §1

[4] = system: VIM-2; type: biochemical; settings: VIM-2 versus VIM-1
Experimental: as §1

[5] = molecular target: T1, VIM-1; settings: previous studies ref Franceschini et al. (4), cited from earlier work
[6] = system: VIM-2; design: method as in Poirel et al. (5); settings: previous studies ref Poirel et al. (5), cited from earlier work
[7] = system: VIM-5; design: method as in Garcar et al. (6); settings: previous studies ref Garcar et al. (6), cited from earlier work
[8] = system: VIM-38; experiment: Steady-state kinetics of β-lactam substrate hydrolysis; type: biochemical; settings: VIM-38 versus VIM-1
Experimental: as §1

[9] = system: VIM-5; experiment: as above; type: biochemical; settings: VIM-5 versus VIM-1
Experimental: as §1

[10] = molecular target: T1, VIM-1; experiment: Nitrocefin hydrolysis kinetics before thermal denaturation and after refolding; type: biochemical
Experimental: (§2) Circular dichroism (CD) analyses were carried out using a Chirascan CD spectrophotometer (Applied Photophysics) equipped with a Peltier temperature-controlled cell holder. CD measurements were collected in the range of 185 to 260 nm; spectra were baseline corrected and smoothed using a Savitzky-Golay filter. Data were normalized at 207 nm to account for differences in protein concentrations ([38]), and the estimation of secondary structure content was performed with Dichro Web ([39]) using the CONTIN Analysis Programme (reference set 6) ([40]). Melting temperatures (Tm) of the recombinant enzymes were determined by monitoring temperature-induced changes in the CD signal at 222 nm. The temperature was increased by 1°C per min, and the CD signal was recorded at temperatures ranging from 25°C to 92°C. The samples were then cooled from 92°C to 25°C at the same rate, and a CD spectrum of the refolded proteins was determined. The activity of the enzymes was recorded before thermal denaturation and after refolding by monitoring nitrocefin hydrolysis. The thermal denaturation data were fitted to a Boltzmann sigmoidal curve by using GraphPad Prism 5.0 software. CD spectra and thermal denaturation curves are shown in Fig. 2 and in Tables S2 and S3 in the supplemental material.

[11] = molecular target: T4, VIM-2 (Escherichia coli, UniProt Q5U7L7); experiment: as above; type: biochemical
T4 construct: His6 (N, cleaved yes); made in house
Experimental: as §2

[12] = molecular target: T2, VIM-38; experiment: as above; type: biochemical
Experimental: as §2

[13] = molecular target: T5, VIM-4 (Pseudomonas aeruginosa, UniProt A0A0F7KYQ8, S205R); experiment: as above; type: biochemical
T5 construct: His6 (N, cleaved yes); made in house
Experimental: as §2

[14] = molecular target: T3, VIM-5; experiment: as above; type: biochemical
Experimental: as §2

[15] = molecular target: T1, VIM-1; experiment: Inhibition of enzyme-mediated nitrocefin hydrolysis; type: biochemical; settings: read-out: IC50 VIM-1 (H224, S228); as to IC50 VIM-4 (H224, R228): 10 min preincubation
Experimental: (§3) Inhibitors were prepared as reported previously ([36], [41]). Enzyme-mediated hydrolysis of nitrocefin was monitored by determining the changes in absorbance at 495 nm, as previously described ([36], [37]). Residual activities were first determined at a 100 μM inhibitor concentration. […] The residual activities were obtained at increasing inhibitor concentrations (0.2 to 2,000 μM); the data were analyzed using GraphPad Prism 5.01 software.

[16] = molecular target: T4, VIM-2; experiment: as above; type: biochemical; settings: read-out: IC50 VIM-2 (Y224, R228)
Experimental: as §3

[17] = system: VIM-2; experiment: as above; type: biochemical; settings: VIM-2 versus VIM-5 and VIM-38
Experimental: as §3

[18] = molecular target: T2, VIM-38; experiment: as above; type: biochemical
Experimental: as §3

[19] = system: VIM-38; experiment: as above; type: biochemical; settings: VIM-38 versus VIM-1
Experimental: as §3

[20] = molecular target: T5, VIM-4; experiment: as above; type: biochemical; settings: for IC50: read-out: IC50 VIM-4 (H224, R228)
Experimental: as §3

[21] = molecular target: T3, VIM-5; experiment: as above; type: biochemical
Experimental: as §3

[22] = system: VIM-5; experiment: as above; type: biochemical; settings: VIM-5 versus VIM-1
Experimental: as §3

[23] = molecular target: T4, VIM-2; experiment: 1H CPMG NMR binding assay (thiomandelic acid reporter ligand displacement); settings: 50 μM thiomandelic acid, 50 μM enzyme, 50 mM Tris-D11 pH 7.5, read-out: KD app VIM-2
Experimental: (§4) Binding assays were carried out using ^1H-edited Carr-Purcell-Meiboom-Gill (CPMG) nuclear magnetic resonance (NMR) analyses. Spectra were recorded by using a Bruker AVIII 600-MHz NMR spectrometer equipped with a BB-F/^1H Prodigy N2 cryoprobe using 3-mm Match NMR tubes (Cortectnet). The PROJECT-CPMG sequence (90°x-[τ-180°y-τ-90°y-τ-180°y-τ]n-acq) was applied, and water suppression was achieved by presaturation. […] Assays were conducted using 50 mM Tris-D11 (pH 7.5) supplemented with 0.02% NaN3 in 90% H2O and 10% D2O. Equilibrium dissociation constant (KD) measurements for the reporter ligand (50 μM thiomandelic acid) and inhibitors (0 to 300 μM) were carried out as previously reported ([43]). Data were processed with Bruker 3.1 software and fitted by using Origin Pro8.5.1 (see Table S5 in the supplemental material).
(§5) *Apparent kinetic parameters were reported for ampicillin and ceftazidime hydrolysis. #C-terminal His -tagged […]
(§6) VIM-1 was used for kinetic analyses.
(§7) Table S5. Apparent KD curve fitting for the binding of inhibitors (1) and (2) to VIM-2 and […]
(§8) Apparent KD fitting as monitored by 1H CPMG NMR spectra of the signal recovery of thiomandelic acid (50 μM) upon addition of increasing concentrations of 1 and 2 with a final enzyme concentration of 50 μM VIM-2/VIM-5. Assays were conducted in 50 mM Tris-D11 (pH […]
(§9) (also on this page, place not known: K D Tris-D 11 His6-tagged V0 (µM/ s) NN OHO % thiomandelic acid displacement µM % thiomandelic acid displacement) […]

[24] = molecular target: T3, VIM-5; experiment: as above
Experimental: as §4, §5, §6, §7, §8, §9

C[C@@H](O)[C@H]1C(=O)N2C(C(=O)O)=C(SCCN=CN)C[C@H]12 [Imipenem]
kcat VIM-1 [1]: 30 s⁻¹ | kcat VIM-38 [2]: 90 s⁻¹ | Km [2]: 150 ± 20 µM | kcat VIM-5 [3]: 58 s⁻¹ and 60 s⁻¹ | Km [3]: 58 µM and 60 µM | fold increase in kcat/Km of VIM-2 compared to VIM-1 [4]: 6 fold | kcat VIM-1 (previous study) [5]: 2 s⁻¹ | Km ([5]; read-out: Km VIM-1 (previous study)): 1.5 µM | kcat VIM-2 (previous study) [6]: 9.9 s⁻¹ | Km ([6]; read-out: Km VIM-2 (previous study)): 10 µM | kcat VIM-5 (previous study) [7]: 3.5 s⁻¹ | Km ([7]; read-out: Km VIM-5 (previous study)): 12 µM

CO[C@@]1(NC(=O)Cc2cccs2)C(=O)N2C(C(=O)O)=C(COC(N)=O)CS[C@@H]21 [Cefoxitin]
kcat VIM-38 [2]: 340 s⁻¹ | Km [2]: 230 ± 60 µM | fold increase in kcat/Km of VIM-38 over VIM-1 [8]: > 7 fold | fold-higher kcat of VIM-38 than VIM-1 [8]: > 10 fold | kcat VIM-5 [3]: 460 s⁻¹ | Km [3]: 320 ± 60 µM | fold increase in kcat/Km of VIM-5 over VIM-1 [9]: > 7 fold | fold-higher kcat of VIM-5 than VIM-1 [9]: > 10 fold

O=C(Cc1cccs1)N[C@@H]1C(=O)N2C(C(=O)O)=C(/C=C/c3ccc([N+](=O)[O-])cc3[N+](=O)[O-])CS[C@H]12 [Nitrocefin]
kcat VIM-38 [2]: 720 s⁻¹ | Km [2]: 70 ± 10 µM | kcat VIM-5 [3]: 420 s⁻¹ | Km [3]: 50 ± 5 µM | kcat VIM-1 after refolding ([10]; after refolding): 12 s⁻¹ | kcat VIM-1 pre-heating ([10]; pre-heating): 25 s⁻¹ | kcat VIM-2 after refolding ([11]; after refolding): 290 s⁻¹ | Km ([11]; pre-heating): 13 ± 1 µM | kcat VIM-2 pre-heating ([11]; pre-heating): 290 s⁻¹ | kcat VIM-38 pre-heating ([12]; pre-heating): 690 s⁻¹ | Km ([12]; read-out: Km VIM-38 after refolding, after refolding): 40 ± 4 µM | Km ([12]; read-out: Km VIM-38 pre-heating, pre-heating): 55 ± 6 µM | kcat VIM-4 after refolding ([13]; after refolding): 180 s⁻¹ | Km ([13]; after refolding, read-out: Km VIM-4 after refolding): 30 ± 2 µM | kcat VIM-4 pre-heating ([13]; pre-heating): 340 s⁻¹ | Km ([13]; pre-heating, read-out: Km VIM-4 pre-heating): 45 ± 1 µM | kcat VIM-5 after refolding ([14]; after refolding): 100 s⁻¹ | Km ([14]; after refolding, read-out: Km VIM-5 after refolding): 11 ± 1 µM | kcat VIM-5 pre-heating ([14]; pre-heating): 210 s⁻¹ | Km ([14]; pre-heating, read-out: Km VIM-5 pre-heating): 45 ± 3 µM

O=C(N[C@H](Cc1c[nH]c2ccccc12)C(=O)O)c1nc(Cl)c2ccccc2c1O [compound 1]
IC50 [15]: > 1000 µM | IC50 [16]: 90 µM | fold-higher IC50 of VIM-2 than VIM-5 and VIM-38 [17]: > 40 fold | IC50 [18]: 2 µM | better inhibitor of VIM-38 than VIM-1 (IC50 ratio) [19]: > 500 fold | fold-higher IC50 of VIM-4 than VIM-5 and VIM-38 ([20]; VIM-4 versus VIM-5 and VIM-38): > 40 fold | IC50 [20]: 200 µM | IC50 [21]: 2 µM | better inhibitor of VIM-5 than VIM-1 (IC50 ratio) [22]: > 500 fold | Kd [23]: 180 µM | Kd [24]: 140 µM

O=C(N[C@@H](Cc1c[nH]c2ccccc12)C(=O)O)c1nc(Cl)c2ccccc2c1O [compound 2]
IC50 [15]: 60 µM | IC50 [16]: 300 µM | IC50 [18]: 80 µM | IC50 [20]: 600 µM | IC50 [21]: 50 µM | Kd [23]: 330 µM | Kd [24]: 180 µM
